Results: publication PMC8320619 (Current Research in Toxicology, 2020)

Molecular target: T1, multidrug resistance associated protein 4 (MRP4) (Homo sapiens, UniProt O15439)
T1 sequence (O15439 1-1325): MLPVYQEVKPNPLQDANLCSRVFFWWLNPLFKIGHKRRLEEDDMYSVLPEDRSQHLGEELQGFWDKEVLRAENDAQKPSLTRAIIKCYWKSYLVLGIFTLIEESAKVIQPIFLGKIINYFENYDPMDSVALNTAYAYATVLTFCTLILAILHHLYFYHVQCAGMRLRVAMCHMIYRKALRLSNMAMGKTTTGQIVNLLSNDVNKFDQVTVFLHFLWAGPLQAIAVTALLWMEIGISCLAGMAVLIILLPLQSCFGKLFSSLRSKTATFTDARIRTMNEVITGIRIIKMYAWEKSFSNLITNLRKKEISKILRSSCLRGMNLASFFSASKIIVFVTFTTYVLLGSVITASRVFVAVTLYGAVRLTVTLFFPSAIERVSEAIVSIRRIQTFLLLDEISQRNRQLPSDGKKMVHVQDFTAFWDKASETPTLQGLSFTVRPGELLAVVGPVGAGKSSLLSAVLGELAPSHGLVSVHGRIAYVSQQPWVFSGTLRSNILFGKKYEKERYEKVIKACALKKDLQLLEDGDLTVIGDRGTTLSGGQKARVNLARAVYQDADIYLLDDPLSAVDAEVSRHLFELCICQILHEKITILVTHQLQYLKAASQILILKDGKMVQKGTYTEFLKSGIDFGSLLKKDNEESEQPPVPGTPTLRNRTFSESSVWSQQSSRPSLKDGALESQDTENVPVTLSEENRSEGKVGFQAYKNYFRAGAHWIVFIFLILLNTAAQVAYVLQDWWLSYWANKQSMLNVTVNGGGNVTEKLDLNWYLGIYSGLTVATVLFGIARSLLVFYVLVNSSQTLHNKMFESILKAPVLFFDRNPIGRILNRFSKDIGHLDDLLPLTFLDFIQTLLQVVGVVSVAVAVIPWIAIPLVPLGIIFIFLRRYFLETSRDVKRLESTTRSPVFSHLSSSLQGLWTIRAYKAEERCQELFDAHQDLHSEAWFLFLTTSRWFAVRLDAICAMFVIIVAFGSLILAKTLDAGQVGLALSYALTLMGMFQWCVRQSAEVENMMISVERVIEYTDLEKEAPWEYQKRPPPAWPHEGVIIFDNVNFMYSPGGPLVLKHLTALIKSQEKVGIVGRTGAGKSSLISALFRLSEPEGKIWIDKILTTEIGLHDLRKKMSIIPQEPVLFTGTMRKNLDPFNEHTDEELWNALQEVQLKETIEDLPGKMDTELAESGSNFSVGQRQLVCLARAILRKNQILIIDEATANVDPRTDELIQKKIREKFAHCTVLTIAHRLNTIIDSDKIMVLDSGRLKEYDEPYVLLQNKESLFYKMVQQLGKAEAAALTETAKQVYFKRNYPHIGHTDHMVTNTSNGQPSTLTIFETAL
Type: biochemical

For `CC(=O)Nc1ccc(O)c(SC[C@H](N)C(=O)O)c1` [APAP-CYS, acetaminophen cysteine], the IC50 was 125 µM.
